Measurements from patent publication US9012412B2, “Dual SGLT1/SGLT2 inhibitors” (Janssen Pharmaceutica NV, priority 2013, dated 2015).

Columns and labels:
[1] = target: T1, human SGLT2 (Homo sapiens, UniProt P31639); assay: Sodium-dependent 14C-methyl-α-D-glucopyranoside uptake in CHO-K1 cells stably expressing human SGLT2; type: cell-based; settings: for IC50: 14C-methyl-α-D-glucopyranoside uptake; for inhibition at 0.1 µM: compound at 0.1 μM; for inhibition at 3 µM: compound at 3 μM
T1 construct: expressed in transfected cells
T1 sequence (P31639 1-672): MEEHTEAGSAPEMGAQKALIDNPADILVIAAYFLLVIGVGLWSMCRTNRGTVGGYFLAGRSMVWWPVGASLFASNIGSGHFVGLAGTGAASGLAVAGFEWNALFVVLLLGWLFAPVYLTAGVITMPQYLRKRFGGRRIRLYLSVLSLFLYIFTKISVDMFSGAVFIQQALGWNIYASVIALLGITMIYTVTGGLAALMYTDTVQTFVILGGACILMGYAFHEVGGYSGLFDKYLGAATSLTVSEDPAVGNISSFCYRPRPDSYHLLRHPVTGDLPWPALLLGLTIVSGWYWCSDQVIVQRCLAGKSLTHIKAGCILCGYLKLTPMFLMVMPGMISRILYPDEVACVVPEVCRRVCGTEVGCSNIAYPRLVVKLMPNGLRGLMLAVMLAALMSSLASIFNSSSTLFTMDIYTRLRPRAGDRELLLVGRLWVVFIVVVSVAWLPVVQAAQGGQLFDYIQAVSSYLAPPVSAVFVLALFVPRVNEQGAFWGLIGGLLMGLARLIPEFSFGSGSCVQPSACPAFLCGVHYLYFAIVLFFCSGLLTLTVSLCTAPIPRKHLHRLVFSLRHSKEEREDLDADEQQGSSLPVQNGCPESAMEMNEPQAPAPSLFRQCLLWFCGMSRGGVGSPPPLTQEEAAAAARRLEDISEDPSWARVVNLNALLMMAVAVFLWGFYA
Method: (§1) SGLT1 and SGLT2 were cloned in form of cDNA from human small intestine (Genbank M24847), and from human kidney (Genbank M95549), respectively. Subsequently, each full cDNA was subcloned into pcDNA with each construct's integrity verified through follow-on sequencing. To generate CHO-K1 cells that stably express human SGLT1 or human SGLT2 CHO-K1 cells were transfected using DMRIE-C reagent (Life Technologies, Gaithersburg, Md.). Transfected cells were then selected in the presence of 500 μg/ml of the antibiotic G418 (Gibco-BRL, Grand Island, N.Y.). Individual clones were then characterized using the following cell-based assay for sodium-dependent glucose transport.
(§2) First, cell lines stably expressing human SGLT1 or SGLT2 were seeded at a density of 65,000 cells per well per 200 μl cell culture medium with 10 mM of NaButyrate (Aldrich Catalog No. 30341-0) in a 96-well flat bottom plate (COSTAR, Catalog No. 3903). For human SGLT1 or SGLT2 expressing CHO-K1 cells the culture medium comprised Ham's F-12 (Invitrogen Catalog No. 31765), Fetal Bovine Serum (Invitrogen Catalog No. 16000), G418 (Geneticin, Cellgro Catalog No. 30234-CI), Phlorizidin (Sigma Catalog No. P3449), DPBS (Cellgro Catalog No. 21030-CV), ^14C-methyl-α-D-glucopyranoside (Amersham Catalog No. CFB 76), and Methyl-α-D-glucopyranoside (Sigma Catalog No. M-9376).
(§3) The cells were allowed to incubate for 24 hours. Subsequently, the medium was aspirated from the plates and the cells were washed one time with 150 μl assay buffer and incubate 15 min with another 150 μl assay buffer which comprised 50 mM HEPES pH 7.4, 20 mM Tris Base, 5 mM KCl, 1 mM MgCl2, 1 mM CaCl2, and 137 mM NaCl. After removing the wash buffer, 40 μl assay buffer and 10 μl compound solution was added to each well, which was again allowed to incubate for 10 min.
(§4) Following the 10 min incubation, 10 μl of serial diluted Methyl-α-D-glucopyranoside (Sigma Catalog No. M-9376) containing 0.07 μCi ^14C-methyl-α-D-glucopyranoside (Amersham Catalog No. CFB 76) was added to the appropriate well and allowed to incubate for another 2 hours. ^14C-methyl-α-D-glucopyranoside (Sigma Catalog No. M-9376, St. Louis, Mo.) is a non-metabolizable glucose analog specific for sodium-dependent glucose transporters as previously described by H. Peng and J. E. Lever in “Post-transcriptional regulation of Na+/glucose cotransporter (SGLT1) gene expression in LLC-PK1 cells,” J. Biol. Chem. 270, 20536-42 (1995).
(§5) Next, the plates were twice washed with 150 μl of ice-cold DPBS (Cellgro Catalog No. 21030) that was then completely removed from the plates before adding 50 μl of MicroScint™-20 (Packard Catalog No. 6013621) to each well for a 20 min or longer incubation time.
(§6) Sodium-dependent ^14C-methyl-α-D-glucopyranoside uptake was quantified by measuring radioactivity. Plates were counted in a TopCount (Packard, Meriden, Conn.). Results are reported as the %-inhibition or IC50 value from a representative experiment. Variability for the functional assay was typically within 20%.

[2] = target: T2, human SGLT1 (Homo sapiens, UniProt P13866); assay: Sodium-dependent 14C-methyl-α-D-glucopyranoside uptake in CHO-K1 cells stably expressing human SGLT1; type: cell-based; settings: for IC50: 14C-methyl-α-D-glucopyranoside uptake; for inhibition at 3 µM: compound at 3 μM; for inhibition at 0.1 µM: compound at 0.1 μM
T2 construct: expressed in transfected cells
T2 sequence (P13866 1-664): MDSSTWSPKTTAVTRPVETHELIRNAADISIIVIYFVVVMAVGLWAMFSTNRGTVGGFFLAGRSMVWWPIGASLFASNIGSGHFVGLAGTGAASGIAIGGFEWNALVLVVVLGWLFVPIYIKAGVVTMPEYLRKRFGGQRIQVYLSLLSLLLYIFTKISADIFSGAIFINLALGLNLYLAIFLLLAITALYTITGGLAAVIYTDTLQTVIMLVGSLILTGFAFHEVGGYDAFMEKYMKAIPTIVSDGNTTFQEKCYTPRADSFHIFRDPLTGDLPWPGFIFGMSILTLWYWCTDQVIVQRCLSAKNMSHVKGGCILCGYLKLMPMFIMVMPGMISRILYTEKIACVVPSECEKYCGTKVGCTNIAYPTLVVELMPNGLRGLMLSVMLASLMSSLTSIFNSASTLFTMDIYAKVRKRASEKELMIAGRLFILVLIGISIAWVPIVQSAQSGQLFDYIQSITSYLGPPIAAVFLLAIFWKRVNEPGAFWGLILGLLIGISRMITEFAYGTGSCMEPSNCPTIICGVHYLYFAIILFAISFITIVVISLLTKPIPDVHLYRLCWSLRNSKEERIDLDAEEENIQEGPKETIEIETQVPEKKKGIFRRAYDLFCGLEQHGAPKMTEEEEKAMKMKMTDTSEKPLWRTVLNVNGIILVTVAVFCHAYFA
Method: as §1, §2, §3, §4, §5, §6

Row | SMILES | IC50 [1] | IC50 [2] | inhibition at 0.1 µM [1] | inhibition at 3 µM [2] | inhibition at 0.1 µM [2] | other results
1 | CCc1cc(O)c([C@@H]2O[C@H](CO)C[C@H](O)[C@H]2O)cc1Cc1cc2ccccc2s1 [Cpd 11, (2S,3R,4S,6S)-2-(5-(benzo[b]thiophen-2-ylmethyl)-4-ethyl-2-hydroxyphenyl)-6-(hydroxymethyl)tetrahydro-2H-pyran-3,4-diol] | 61 nM | – | – | 95% | – | –
2 | C=C(c1cc2ccccc2s1)c1cc([C@@H]2O[C@H](CO)C[C@H](O)[C@H]2O)c(O)cc1C [Cpd 8, (2S,3R,4S,6S)-2-(5-(1-(benzo[b]thiophen-2-yl)vinyl)-2-hydroxy-4-methylphenyl)-6-(hydroxymethyl)tetrahydro-2H-pyran-3,4-diol] | – | – | – | 41% | – | inhibition at 3 µM [1]: 25%
3 | Cc1cc(O)c([C@@H]2O[C@H](CO)C[C@H](O)[C@H]2O)cc1C1(c2cc3ccccc3s2)CC1 [Cpd 10, (2S,3R,4S,6S)-2-(5-(1-(benzo[b]thiophen-2-yl)cyclopropyl)-2-hydroxy-4-methylphenyl)-6-(hydroxymethyl)tetrahydro-2H-pyran-3,4-diol] | 223 nM | > 3000 nM | – | – | – | –
4 | Cc1cc(-c2ccc[nH]2)c([C@@H]2O[C@H](CO)C[C@H](O)[C@H]2O)cc1Cc1cc2ccccc2s1 [Cpd 26, (2S,3R,4S,6S)-2-(5-(benzo[b]thiophen-2-ylmethyl)-4-methyl-2-(1H-pyrrol-2-yl)phenyl)-6-(hydroxymethyl)tetrahydro-2H-pyran-3,4-diol] | – | – | 57% | – | 33% | –
5 | C=C(c1cc2ccccc2s1)c1cc([C@@H]2O[C@H](CO)C[C@H](O)[C@H]2O)c(O)cc1OC [Cpd 7, (2S,3R,4S,6S)-2-(5-(1-(benzo[b]thiophen-2-yl)vinyl)-2-hydroxy-4-methoxyphenyl)-6-(hydroxymethyl)tetrahydro-2H-pyran-3,4-diol] | – | – | – | 43% | – | inhibition at 3 µM [1]: 6%
6 | OC[C@@H]1C[C@H](O)[C@@H](O)[C@H](c2cc(Cc3cc4ccccc4s3)c(F)cc2O)O1 [Cpd 4, (2S,3R,4S,6S)-2-(5-(benzo[b]thiophen-2-ylmethyl)-4-fluoro-2-hydroxyphenyl)-6-(hydroxymethyl)-tetrahydro-2H-pyran-3,4-diol] | 128 nM | 893 nM | – | – | – | –
7 | Cc1cc(O)c([C@@H]2O[C@H](CO)C[C@H](O)[C@H]2O)cc1Cc1cc2ccccc2o1 [Cpd 28, (2S,3R,4S,6S)-2-(5-(benzofuran-2-ylmethyl)-2-hydroxy-4-methylphenyl)-6-(hydroxymethyl)tetrahydro-2H-pyran-3,4-diol] | – | – | 69% | – | 33% | –

Now from value to molecule, other results behind:

Row | IC50 [1] | IC50 [2] | inhibition at 0.1 µM [1] | inhibition at 3 µM [2] | inhibition at 0.1 µM [2] | SMILES | other results
8 | 41 nM | 220 nM | – | – | – | Cc1cc(O)c([C@@H]2O[C@H](CO)C[C@H](O)[C@H]2O)cc1Cc1cc2cc(F)ccc2s1 [Cpd 19, (2S,3R,4S,6S)-2-(5-((5-fluorobenzo[b]thiophen-2-yl)methyl)-2-hydroxy-4-methylphenyl)-6-(hydroxymethyl)tetrahydro-2H-pyran-3,4-diol] | –
9 | – | 240 nM | 77% | – | – | OC[C@@H]1C[C@H](O)[C@@H](O)[C@H](c2cc(Cc3cc4ccccc4s3)c(C(F)(F)F)cc2O)O1 [Cpd 16, (2S,3R,4S,6S)-2-(5-(benzo[b]thiophen-2-ylmethyl)-2-hydroxy-4-(trifluoromethyl)phenyl)-6-(hydroxymethyl)tetrahydro-2H-pyran-3,4-diol] | –
10 | – | – | – | 0% | – | Cc1cc(O)c([C@@H]2O[C@H](CO)C[C@H](O)[C@H]2O)cc1C(=O)c1cc2ccccc2s1 [Cpd 6, benzo[b]thiophen-2-yl(5-((2S,3R,4S,6S)-3,4-dihydroxy-6-(hydroxymethyl)-tetrahydro-2H-pyran-2-yl)-4-hydroxy-2-methylphenyl)methanone] | inhibition at 3 µM [1]: 0%
11 | 4 nM | 97 nM | – | – | – | CCc1ccc(Cc2cc([C@@H]3O[C@H](CO)C[C@H](O)[C@H]3O)c(O)cc2C)s1 [Cpd 32, (2S,3R,4S,6S)-2-(5-((5-ethylthiophen-2-yl)methyl)-2-hydroxy-4-methylphenyl)-6-(hydroxymethyl)tetrahydro-2H-pyran-3,4-diol] | –
12 | – | – | 64% | – | 58% | C=Cc1cc(O)c([C@@H]2O[C@H](CO)C[C@H](O)[C@H]2O)cc1Cc1cc2ccccc2s1 [Cpd 17, (2S,3R,4S,6S)-2-(5-(benzo[b]thiophen-2-ylmethyl)-2-hydroxy-4-vinylphenyl)-6-(hydroxymethyl)tetrahydro-2H-pyran-3,4-diol] | –
13 | – | – | 78% | – | 26% | COc1c(Cc2cc3ccccc3s2)cc([C@@H]2O[C@H](CO)C[C@H](O)[C@H]2O)c(O)c1F [Cpd 21, (2S,3R,4S,6S)-2-(5-(benzo[b]thiophen-2-ylmethyl)-3-fluoro-2-hydroxy-4-methoxyphenyl)-6-(hydroxymethyl)tetrahydro-2H-pyran-3,4-diol] | –
14 | – | – | 67% | – | 39% | Cc1c(Cc2cc3ccccc3s2)cc([C@@H]2O[C@H](CO)C[C@H](O)[C@H]2O)c(O)c1C [Cpd 22, (2S,3R,4S,6S)-2-(5-(benzo[b]thiophen-2-ylmethyl)-2-hydroxy-3,4-dimethylphenyl)-6-(hydroxymethyl)tetrahydro-2H-pyran-3,4-diol] | –
15 | – | – | 73% | – | 44% | Cc1cc(Br)c([C@@H]2O[C@H](CO)C[C@H](O)[C@H]2O)cc1Cc1ccc(-c2ccc(F)cc2)s1 [Cpd 30, (2S,3R,4S,6S)-2-(2-bromo-5-((5-(4-fluorophenyl)thiophen-2-yl)methyl)-4-methylphenyl)-6-(hydroxymethyl)tetrahydro-2H-pyran-3,4-diol] | –
16 | – | – | – | 0% | – | COc1cc(O)c([C@@H]2O[C@H](CO)C[C@H](O)[C@H]2O)cc1C(=O)c1cc2ccccc2s1 [Cpd 5, benzo[b]thiophen-2-yl(5-((2S,3R,4S,6S)-3,4-dihydroxy-6-(hydroxymethyl)tetrahydro-2H-pyran-2-yl)-4-hydroxy-2-methoxyphenyl)methanone] | inhibition at 3 µM [1]: 0%
